From patent publication US20100190187A1, “Screening Assays for Antagonists and Analyses of Cardiac Hypertrophy” (The Regents of the University of Michigan Office of …, priority 2006, published 2010)

Target: T1, VDRtt (Rattus norvegicus, UniProt P13053)
T1 construct: from tissue; host or cells: rat heart ventricle, crude myocardial membranes (7,700-40,000 x g pellet)
T1 sequence (P13053 1-423): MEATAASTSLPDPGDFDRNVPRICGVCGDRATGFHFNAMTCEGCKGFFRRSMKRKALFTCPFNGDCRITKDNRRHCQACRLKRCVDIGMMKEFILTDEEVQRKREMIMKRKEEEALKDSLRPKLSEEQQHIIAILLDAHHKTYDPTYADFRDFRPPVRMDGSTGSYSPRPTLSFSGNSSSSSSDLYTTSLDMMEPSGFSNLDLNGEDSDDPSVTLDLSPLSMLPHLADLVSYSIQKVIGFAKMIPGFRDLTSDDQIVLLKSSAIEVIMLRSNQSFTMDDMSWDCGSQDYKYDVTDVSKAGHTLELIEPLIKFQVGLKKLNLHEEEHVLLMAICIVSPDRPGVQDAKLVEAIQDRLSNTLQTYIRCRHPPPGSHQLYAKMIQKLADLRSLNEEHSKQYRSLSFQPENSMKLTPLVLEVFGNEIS
Experiment: Competition with [3H] 1α,25(OH)2 vitamin D3 for binding to rat heart membrane preparations
Details: radioligand binding experiments, FIGS. 6 and 7
Method: Crude myocardial membranes were prepared as follows: whole hearts were removed from three month old female Sprague-Dawley rats and were cannulated and perfused two times with 10 mls ice-cold DPBS then once with 3 mls of ice-cold TKED lysis buffer (50 mM Tris-HCl, 150 mM KCl, 1.5 mM EDTA, 10 mM dithiothreitol, pH7.4 and a 1/100 dilution of Sigma Protease Inhibitor Cocktail [P8340]). Ventricles were cut away from atria and connective tissue and then minced, transferred to a 13 ml round-bottom Sarstedt tube and washed two times in 10 mls TKED lysis buffer by spinning briefly at full speed in a clinical centrifuge then aspirating. Tissue was kept ice-cold as much as possible. Washed minced ventricle tissue was then homogenized on ice with a Tekmar Tissuemizer in 5 volumes (˜5 mls) of TKED lysis buffer using 10 strokes at setting 30 followed by 5 strokes at setting 50. The resulting homogenate was transferred to a 15 ml Corex tube and centrifuged in a Beckman JA-20 rotor at 8,000 rpm (7,700 g) for 15 minutes at 4° C. The supernatant was transferred to a new 15 ml Corex tube and centrifuged in a Beckman JA-20 rotor at 18,200 rpm (40,000 g) for 25 minutes at 4° C. The resulting membrane pellet was washed once in a few mls TKED lysis buffer, resuspended in 0.5 mls TKED lysis buffer then homogenized with 3 strokes of a 2 ml Wheaton Potter-Elvejhem tissue grinder.
Ligand binding assays to determine the ability of competitors or test compounds to compete with [^3H] […] 1α,25(OH)2 vitamin D3 (specific activity 176 Ci/mmol) and various concentrations of competitor or test compound. Nonspecific binding is determined in the presence of cold 1α,25(OH)2 Vitamin D3 (2 μM) for vehicle and each competitor or test compound. Assays are performed at room temperature for 60 minutes. Reactants are then filtered over glass fiber filters (Whatman GF-C) and washed three times with 5 mls ice-cold TKEDN binding buffer. […] Tritiated [^3H] 1α,25(OH)2 vitamin D3 can be obtained from G.E. Healthcare and dried using a nitrogen evaporator and resuspended in ethanol. 1α,25(OH)2 Vitamin D3 and competitors or test compounds can be obtained from Sigma-Aldrich and diluted in ethanol. Vitamin D5 was obtained from the University of Illinois and was diluted in ethanol.

SMILES | binding of vitamin D analogs to VDRtt
C=C1/C(=C\C=C2/CCC[C@]3(C)[C@@H]([C@H](C)CCC(O)C(C)(C)O)CC[C@@H]23)C[C@@H](O)CC1O (stereo partly shown) [1,24,25 trihydroxyvitamin D3] | binds with various affinities
C=C1CCC(O)C/C1=C\C=C1\CCCC2(C)C1CCC2C(C)CCC(O)C(C)(C)O (stereo not shown) [24,25 dihydroxyvitamin D3] | binds with various affinities
C=C1CC[C@H](O)C/C1=C/C=C1\CCC[C@]2(C)[C@@H]([C@H](C)CCCC(C)(C)O)CC[C@@H]12 [25-hydroxyvitamin D3] | binds with various affinities
C=C1CC[C@H](O)C/C1=C/C=C1\CCC[C@]2(C)[C@@H]([C@H](C)CC[C@@H](CC)C(C)C)CC[C@@H]12 [Vitamin D5] | binds with various affinities
